Measured values as given in publication PMC6744390 (Drug Metabolism and Disposition, 2019).

Experiments:
[1] = Plasma protein binding by high-throughput equilibrium dialysis; assay type: in vitro ADME, dog; conditions: both, dog, plasma
plasma proteins = test: as above; assay type: in vitro ADME, dog; conditions: Mann–Whitney U test, n = 6 per group

| fraction unbound at 4 h, 4 µM [1] | difference in plasma protein binding between H1 and H2 allele plasma (plasma proteins) | SMILES |
| --- | --- | --- |
| < 0.02 | No significant difference | Cc1ccc(-c2cc(C(F)(F)F)nn2-c2ccc(S(N)(=O)=O)cc2)cc1 [celecoxib] |
|  | No significant difference | COc1c(C)c2c(c(O)c1C/C=C(\C)CCC(=O)O)C(=O)OC2 [mycophenolic acid] |
